Assay results as given in US7678831B2, “Butanoic acid derivatives, processes for the preparation thereof, pharmaceutical compositions comprising them, and therapeutic applications thereof” (Merck Patent GmbH, priority 2004, dated 2010).
Marks after values point to notes of the source that are not given here.

Legend:
[1] = target: T1, chimeric protein PPARα-Gal4 (Homo sapiens, UniProt Q07869); assay: PPAR activation, Gal4 chimera luciferase reporter gene in co-transfected CV-1 cells; format: cell-based; conditions: 50 μM, 18 hours contact, CV-1 cells (monkey kidney cells)
T1 construct: Gal4 (fusion partner); expressed in transfected cells; host or cells: CV-1 cells (monkey kidney cells)
T1 sequence (Q07869 239-466 limits assumed): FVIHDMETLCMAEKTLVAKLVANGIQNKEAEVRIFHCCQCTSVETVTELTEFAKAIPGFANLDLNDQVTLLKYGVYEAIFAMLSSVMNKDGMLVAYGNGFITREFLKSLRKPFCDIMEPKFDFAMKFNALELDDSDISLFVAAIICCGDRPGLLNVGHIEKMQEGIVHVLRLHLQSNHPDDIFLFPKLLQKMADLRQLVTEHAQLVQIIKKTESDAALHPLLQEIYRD
Experimental: (§1) The measurement of the PPAR activation was performed according to a technique described by Lehmann et al. (J. Biol. Chem., 270, (1995), 12953-12956).
(§2) CV-1 cells (monkey kidney cells) are co-transfected with an expression vector for the chimeric proteins PPARα-Gal4 or PPARγ-Gal4 and with a “reporter” plasmid that allows the expression of the luciferase gene placed under the control of a promoter comprising Gal4 response elements.
(§3) The cells are plated into 96-well microplates and co-transfected using a commercial reagent with the reporter plasmid (pG5-tk-pGL3) and the expression vector for the chimeric protein (PPARα-Gal4 or PPARγ-Gal4). After incubating for 4 hours, whole culture medium (comprising 10% foetal calf serum) is added to the wells. After 24 hours, the medium is removed and replaced with whole medium comprising the test products (50 μM final). The products are left in contact with the cells for 18 hours. The cells are then lysed and the luciferase activity is measured using a luminometer. A PPAR activation factor can then be calculated by means of activation of the expression of the reporter gene induced by the product (relative to the control cells that have not received any product).

[2] = target: T2, chimeric protein PPARγ-Gal4 (Homo sapiens, UniProt P37231); assay: as above; format: cell-based; conditions: 50 μM, 18 hours contact, CV-1 cells (monkey kidney cells)
T2 construct: Gal4 (fusion partner); expressed in transfected cells; host or cells: CV-1 cells (monkey kidney cells)
T2 sequence (P37231 238-503 limits assumed): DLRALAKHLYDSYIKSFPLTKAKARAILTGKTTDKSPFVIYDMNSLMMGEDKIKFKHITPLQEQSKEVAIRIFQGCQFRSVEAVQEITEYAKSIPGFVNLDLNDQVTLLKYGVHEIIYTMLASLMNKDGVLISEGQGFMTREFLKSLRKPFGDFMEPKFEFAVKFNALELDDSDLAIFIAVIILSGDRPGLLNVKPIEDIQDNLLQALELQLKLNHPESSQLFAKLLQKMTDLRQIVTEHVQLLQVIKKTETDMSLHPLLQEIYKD
Experimental: as §1, §2, §3

Gal4 alone = assay: Control reporter test without the PPAR ligand binding domain (vector expressing Gal4 alone); format: cell-based; conditions: CV-1 cells
Experimental: CV-1 cells (monkey kidney cells) are co-transfected with an expression vector for the chimeric proteins PPARα-Gal4 or PPARγ-Gal4 and with a “reporter” plasmid that allows the expression of the luciferase gene placed under the control of a promoter comprising Gal4 response elements. The cells are plated into 96-well microplates and co-transfected using a commercial reagent with the reporter plasmid (pG5-tk-pGL3) and the expression vector for the chimeric protein (PPARα-Gal4 or PPARγ-Gal4). After incubating for 4 hours, whole culture medium (comprising 10% foetal calf serum) is added to the wells. After 24 hours, the medium is removed and replaced with whole medium comprising the test products (50 μM final). The products are left in contact with the cells for 18 hours. The cells are then lysed and the luciferase activity is measured using a luminometer. A PPAR activation factor can then be calculated by means of activation of the expression of the reporter gene induced by the product (relative to the control cells that have not received any product). […] In the absence of the binding domain for the PPAR α or γ ligand (vector expressing Gal4 alone), the luciferase activity measured in the presence of this product is zero.

db/db mice = assay: Antidiabetic and hypolipidaemiant activity, oral, in db/db mice; format: in vivo; conditions: 20 mg/kg/day orally for 15 days
Experimental: The antidiabetic and hypolipidaemiant activity of the compounds according to the invention was determined orally on db/db mice.
15-week-old db/db mice are treated orally for 15 days with the compound of Example 18 (20 mg/kg/day). Each group studied comprises seven animals. After treatment for 15 days, retro-orbital samples are taken under mild anaesthesia and after fasting for four hours.
The following parameters were measured:
Assay of the glycaemia (glucose oxidase) and of the lipid parameters on the sera at D15 (COBAS): triglycerides, total cholesterol (CHOL), HDL cholesterol (HDL-C) and free fatty acids (FFA) (BioMérieux and Waco Chemicals assay kit).
The measurements reported represent mean values±standard error.

[3] = serum at D15, fasting four hours, mean ± standard error

| SMILES | melting point [°C] | further results |
| --- | --- | --- |
| O=C(c1ccc(Cl)cc1)c1ccc(O[C@@H](CCc2ccccc2)C(=O)O)cc1 [Example 6] | 148 |  |
| O=C(O)[C@H](CCc1ccccc1)Oc1ccc(-c2cccnc2)cc1 [Example 7] | 140 |  |
| O=C(O)[C@H](CCc1ccccc1)Oc1ccc(-c2ccsc2)cc1 [Example 8] | 176 to 177 |  |
| O=C(O)[C@H](CCc1ccccc1)Oc1ccc(-c2cccs2)cc1 [Example 9] | 151 to 153 |  |
| O=C(O)[C@H](CCc1ccccc1)Oc1ccc(-c2ccc(Cl)s2)cc1 [Example 18, (2S)-2-[4-(5-chlorothien-2-yl)phenoxy]-4-phenylbutanoic acid] |  | PPAR activation factor (reporter gene expression relative to control cells) [1]: 16; PPAR activation factor (reporter gene expression relative to control cells) [2]: 41; luciferase activity in the absence of the binding domain for the PPAR α or γ ligand (Gal4 alone): zero; CHOL, % var. (percentage of variation versus control) (db/db mice; D15): +25 ** %; FFA, % var. (percentage of variation versus control) (db/db mice; D15): −40 ** %; Glycaemia, % var. (percentage of variation versus control) (db/db mice; D15): −53 ** %; HDL-C, % var. (percentage of variation versus control) (db/db mice; D15): +10 * %; Triglycerides, % var. (percentage of variation versus control) (db/db mice; D15): −41 ** %; CHOL (total cholesterol) (db/db mice; [3]): 4.57 ± 0.51 mM; FFA (free fatty acids) (db/db mice; [3]): 0.42 ± 0.06 mM; Glycaemia (db/db mice; [3]): 12.65 ± 7.0 Mm; HDL-C (db/db mice; [3]): 3.53 ± 0.24 mM; Triglycerides (db/db mice; [3]): 0.77 ± 0.16 mM |
| Cc1nc(-c2ccc(O[C@@H](CCc3ccccc3)C(=O)O)cc2)cs1 [Example 26] | 150 to 152 |  |
| O=C(O)C(CCc1cccc(Cl)c1)Oc1ccc(-c2cc3ccccc3s2)cc1 (stereo not shown) [Example 141] | 109 to 110 |  |
| COc1ccc(CCC(Oc2ccc(-c3cc4ccccc4s3)cc2)C(=O)O)cc1 (stereo not shown) [Example 142] | 198 to 199 |  |
| O=C(O)[C@H](CCc1ccccc1)Oc1cccc(OCc2ccc3ccccc3n2)c1 [Example 143] | 124 |  |
| O=C(O)[C@H](CCc1ccccc1)Oc1ccc(-c2cc3ccccc3o2)cc1 [Example 144] | 198 |  |
| O=C(O)C(CCc1ccc(F)cc1)Oc1ccc(-c2cc3ccccc3s2)cc1 (stereo not shown) [Example 146] | 188 to 190 |  |
| O=C(O)C(CCc1ccccc1)Oc1ccc2oc3ccccc3c2c1 (stereo not shown) [Example 152] | 136 |  |
| Cc1cc(OC(CCc2ccccc2)C(=O)O)cc(=O)o1 (stereo not shown) [Example 207] | 165 |  |
| O=C(O)C(CCc1ccco1)Oc1ccc(Br)cc1 (stereo not shown) [Example 227] | 102 to 104 |  |
| O=C(O)C(CCc1ccco1)Oc1ccc(C(F)(F)F)cc1 (stereo not shown) [Example 228] | 99 to 99.5 |  |
| O=C(O)C(CCc1cccs1)Oc1ccc(C(F)(F)F)cc1 (stereo not shown) [Example 229] | 116 to 118 |  |
